Measurements from ChEMBL document CHEMBL5321216, “Discovery of bipyridine amide derivatives targeting pRXRα-PLK1 interaction for anticancer therapy” (Eur J Med Chem, 2023).
Active and inactive are the calls of the source. No cut-off for these calls is given here.

Tests used:
[1] = Selectivity index, ratio of IC50 for human MCF7 cells to IC50 for human MDA-MB-231 cells; format: toxicity
[2] = tested on: A549; assay: Induction of cell cycle arrest in human A549 cells assessed as accumulation of cells at G1 phase at 62.5 nM incubated for 12 hrs by flow cytometry analysis (reference value: 59.57%); format: functional
[3] = tested on: MDA-MB-231; assay: Induction of mitotic arrest in human MDA-MB-231 cells assessed as chromosome misalignment at 62.5 nM incubated for 12 hrs by alpha-tubulin/DAPI staining based confocal microscopic analysis; format: functional, cell-based
[4] = tested on: MDA-MB-231; assay: Induction of apoptosis in human MDA-MB-231 cells assessed as live cells at 31.25 nM incubated for 24 hrs by annexin V-FITC/PI staining based flow cytometry analysis (reference value: 91.3%); format: functional
[5] = tested on: A549; assay: Induction of cell cycle arrest in human A549 cells assessed as accumulation of cells at S phase at 31.25 nM incubated for 12 hrs by flow cytometry analysis (reference value: 31.81%); format: functional
[6] = tested on: MDA-MB-231; assay: Antiproliferative activity against human MDA-MB-231 cells assessed as inhibition of cell proliferation incubated for 72 hrs by MTT assay; format: functional, cell-based; details: MDA-MB-231, 72 h
[7] = tested on: MDA-MB-231; assay: Induction of RXRalpha-mediated mitotic arrest in human MDA-MB-231 cells assessed as accumulation of pRXRalpha protein at 7.8 to 500 nM measured after 24 hrs by Western blot analysis; format: functional, cell-based; details: dose 7.8-500 nM
[8] = tested on: MDA-MB-231; assay: Induction of apoptosis in human MDA-MB-231 cells assessed as early apoptotic cells at 62.5 nM incubated for 24 hrs by annexin V-FITC/PI staining based flow cytometry analysis (reference value: 2.03%); format: functional
[9] = tested on: MDA-MB-231; assay: Induction of apoptosis in human MDA-MB-231 cells assessed as early apoptotic cells at 250 nM incubated for 24 hrs by annexin V-FITC/PI staining based flow cytometry analysis (reference value: 2.03%); format: functional
[10] = molecular target: T1, Retinoic acid receptor RXR-alpha (Homo sapiens, UniProt P19793); assay: Binding affinity to RXRalpha LBD (unknown origin) assessed as dissociation constant by fluorescence quenching analysis
T1 sequence (P19793 whole entry): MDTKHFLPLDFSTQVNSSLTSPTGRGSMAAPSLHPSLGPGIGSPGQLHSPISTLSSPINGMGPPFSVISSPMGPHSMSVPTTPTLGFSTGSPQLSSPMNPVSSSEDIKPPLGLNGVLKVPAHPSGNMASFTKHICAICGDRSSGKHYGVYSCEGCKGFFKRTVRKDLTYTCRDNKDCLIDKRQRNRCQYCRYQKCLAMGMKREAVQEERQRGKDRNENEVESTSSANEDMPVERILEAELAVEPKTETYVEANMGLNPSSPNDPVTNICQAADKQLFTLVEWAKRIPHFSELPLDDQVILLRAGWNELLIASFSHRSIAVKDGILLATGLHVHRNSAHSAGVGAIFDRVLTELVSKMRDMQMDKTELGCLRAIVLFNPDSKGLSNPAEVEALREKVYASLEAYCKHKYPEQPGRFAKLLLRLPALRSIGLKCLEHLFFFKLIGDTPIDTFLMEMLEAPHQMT

[11] = tested on: A549; assay: Induction of apoptosis in human A549 cells assessed as live cells at 250 nM incubated for 24 hrs by annexin V-FITC/PI staining based flow cytometry analysis (reference value: 93.2%); format: functional
[12] = molecular target: Nuclear receptor subfamily 4immunitygroup A member 1 (Homo sapiens) (UniProt P22736); assay: Antagonist activity at Nur77 (unknown origin) transfected in human HeLa cells at 31.25 uM incubated for 24 hrs by dual luciferase reporter assay; format: cell-based
[13] = tested on: A549; assay: Induction of cell cycle arrest in human A549 cells assessed as accumulation of cells at G1 phase at 125 nM incubated for 12 hrs by flow cytometry analysis (reference value: 59.57%); format: functional
[14] = tested on: A549; assay: Induction of apoptosis in human A549 cells assessed as early apoptotic cells at 62.5 nM incubated for 24 hrs by annexin V-FITC/PI staining based flow cytometry analysis (reference value: 0.78%); format: functional
[15] = tested on: MDA-MB-231; assay: Induction of apoptosis in human MDA-MB-231 cells assessed as live cells at 250 nM incubated for 24 hrs by annexin V-FITC/PI staining based flow cytometry analysis (reference value: 91.3%); format: functional
[16] = Cytotoxicity against human HaCaT cells assessed as inhibition of cell proliferation incubated for 72 hrs by MTT assay; format: toxicity, cell-based
[17] = tested on: A549; assay: Induction of apoptosis in human A549 cells assessed as late apoptotic cells at 125 nM incubated for 24 hrs by annexin V-FITC/PI staining based flow cytometry analysis (reference value: 5.28%); format: functional
[18] = Cmax in Sprague-Dawley rat at 25 mg/kg, ip measured for 48 hrs by LC-MS/MS analysis; format: ADME, organism-based; set-up: time 48 hrs, dose 25 mg/kg, route ip; details: in vivo
[19] = tested on: MDA-MB-231; assay: Induction of cell cycle arrest in human MDA-MB-231 cells assessed as accumulation of cells at G2 phase at 15.625 nM incubated for 12 hrs by flow cytometry analysis (reference value: 15.91%); format: functional; details: 0.01562 µM
[20] = Selectivity index, ratio of IC50 for human HCC1937 cells to IC50 for human MDA-MB-231 cells; format: functional
[21] = tested on: MDA-MB-231; assay: Induction of apoptosis in human MDA-MB-231 cells assessed as early apoptotic cells at 125 nM incubated for 24 hrs by annexin V-FITC/PI staining based flow cytometry analysis (reference value: 2.03%); format: functional
[22] = tested on: MDA-MB-231; assay: Induction of cell cycle arrest in human MDA-MB-231 cells assessed as accumulation of cells at G2 phase at 62.5 nM incubated for 12 hrs by flow cytometry analysis (reference value: 15.91%); format: functional
[23] = tested on: A549; assay: Induction of apoptosis in human A549 cells assessed as late apoptotic cells at 62.5 nM incubated for 24 hrs by annexin V-FITC/PI staining based flow cytometry analysis (reference value: 5.28%); format: functional
[24] = tested on: MDA-MB-231; assay: Induction of apoptosis in human MDA-MB-231 cells assessed as late apoptotic cells at 125 nM incubated for 24 hrs by annexin V-FITC/PI staining based flow cytometry analysis (reference value: 5.93%); format: functional
[25] = tested on: A549; assay: Antiproliferative activity against wild type human A549 cells assessed as inhibition of cell growth incubated for 72 hrs by MTT assay; format: functional, cell-based; details: A549, 72 h
[26] = tested on: MDA-MB-231; assay: Antitumor activity against human MDA-MB-231 cells xenografted in BALB/c nude mouse assessed as reduction in Ki67 protein expression at 25 mg/kg/day, ip administered for 15 days by immunohistochemical analysis; format: functional, organism-based; details: time 15.0 day
[27] = tested on: A549; assay: Induction of apoptosis in human A549 cells assessed as live cells at 31.25 nM incubated for 24 hrs by annexin V-FITC/PI staining based flow cytometry analysis (reference value: 93.2%); format: functional
[28] = tested on: MDA-MB-231; assay: Induction of apoptosis in human MDA-MB-231 cells assessed as dead cells at 250 nM incubated for 24 hrs by annexin V-FITC/PI staining based flow cytometry analysis (reference value: 0.69%); format: functional
[29] = tested on: A549; assay: Antiproliferative activity against RXRalpha knockout human A549 cells assessed as inhibition of cell growth incubated for 72 hrs by MTT assay; format: functional, cell-based; details: A549, 72 h
[30] = Apparent clearance during terminal phase in Sprague-Dawley rat at 25 mg/kg, ip measured for 48 hrs by LC-MS/MS analysis; format: ADME, organism-based; details: in vivo, read-out: CLz/F (converted)

Sequence of Nuclear receptor subfamily 4immunitygroup A member 1 (Homo sapiens) (P22736 whole entry): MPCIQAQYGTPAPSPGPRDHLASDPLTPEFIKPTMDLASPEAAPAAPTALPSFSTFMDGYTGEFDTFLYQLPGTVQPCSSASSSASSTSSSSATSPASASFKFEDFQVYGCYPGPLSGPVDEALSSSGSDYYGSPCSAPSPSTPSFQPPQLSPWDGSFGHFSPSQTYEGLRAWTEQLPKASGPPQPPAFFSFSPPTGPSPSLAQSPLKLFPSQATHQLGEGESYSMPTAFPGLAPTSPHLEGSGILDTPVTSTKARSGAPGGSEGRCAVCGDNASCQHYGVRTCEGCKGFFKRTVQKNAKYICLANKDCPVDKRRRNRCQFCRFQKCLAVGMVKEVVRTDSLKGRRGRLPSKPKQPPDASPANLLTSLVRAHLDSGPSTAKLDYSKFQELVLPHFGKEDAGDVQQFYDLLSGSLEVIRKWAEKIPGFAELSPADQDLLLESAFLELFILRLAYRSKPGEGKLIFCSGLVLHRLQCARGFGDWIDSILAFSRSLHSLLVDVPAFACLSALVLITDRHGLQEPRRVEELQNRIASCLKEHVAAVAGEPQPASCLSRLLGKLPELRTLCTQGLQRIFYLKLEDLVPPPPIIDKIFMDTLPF

## O=C(/C=C/c1ccccc1)Nc1cc(-c2ccnc(N3CCC(CO)CC3)c2)ccn1
[1]
  Ratio IC50: 146.5
[2]
  Activity: 59.43%
[3]
  Activity: Active
[4]
  Activity: 82.2%
[5]
  Activity: 32.4%
[6]
  IC50: 16 nM
[7]
  Activity: Active
[8]
  Activity: 13.1%
[9]
  Activity: 20.2%
[10]
  Kd: 147 nM
[11]
  Activity: 44.9%
[12]
  Activity: inactive
[13]
  Activity: 16.45%
[14]
  Activity: 11.4%
[15]
  Activity: 57.9%
[16]
  IC50 at 72 h: 51 nM
[17]
  Activity: 22.8%
[18]
  Cmax: 8080 ng/mL
[19]
  Activity: 15.75%
[20]
  Ratio IC50: 35.06
[21]
  Activity: 11.2%
[22]
  Activity: 81.68%
[23]
  Activity: 18.2%
[24]
  Activity: 19.2%
[25]
  IC50: 196 nM
[26]
  Activity: Active
[27]
  Activity: 70.9%
[28]
  Activity: 1.67%
[29]
  IC50: 3360 nM
[30]
  CL/F: 25.8 mL/min/kg
